The results in this text go back to patent publication US8143403B2 (Bristol-Myers Squibb Company, priority 2008, dated 2012).

The target of assay [1] is T1, Human CGRP Receptor (Homo sapiens, UniProt O60894+Q16602).
T1 construct: Crude membranes were prepared from SK-N-MC cells expressing CGRP receptors; endogenous in cells; host or cells: SK-N-MC cells (crude membranes)
The assay is described as follows: Radioligand binding assay, [125I]-CGRP displacement on SK-N-MC membranes. Particulars: displacement of [125I]-CGRP (18 pM final), 2 h room temperature. The method, then:
Tissue Culture. SK-N-MC cells were grown at 37° C. in 5% CO2 as a monolayer in medium consisting of MEM with Earle's salts and L-glutamine (Invitrogen) supplemented with 10% fetal bovine serum (Invitrogen).
Membrane Preparation. Crude membranes were prepared from SK-N-MC cells expressing CGRP receptors. The cells were rinsed twice with phosphate-buffered saline (155 mM NaCl, 3.3 mM Na2HPO4, 1.1 mM KH2PO4, pH 7.4), and incubated for 5-10 min. at 4° C. in hypotonic lysis buffer consisting of 10 mM Tris (pH 7.4) and 5 mM EDTA. The cells were transferred from plates to polypropylene tubes (16×100 mm) and homogenized using a polytron. Homogenates were centrifuged at 32,000×g for 30 min. The pellets were resuspended in cold hypotonic lysis buffer with 0.1% mammalian protease inhibitor cocktail (Sigma) and assayed for protein concentration. The SK-N-MC homogenate was aliquoted and stored at −80° C. Radioligand Binding Assay. The compounds of invention were solubilized and carried through serial dilutions using 100% DMSO. Aliquots from the compound serial dilutions were further diluted 25 fold into assay buffer (50 mM Tris-Cl pH 7.5, 5 mM MgCl2, 0.005% Triton X-100) and transferred (volume 50 μl) into 96 well assay plates. [^125I]-CGRP (GE Healthcare or Perkin-Elmer) was diluted to 72 pM in assay buffer and a volume of 50 μl was added to each well. SK-N-MC membranes were thawed, diluted in assay buffer with fresh 0.1% mammalian protease inhibitor cocktail (Sigma), and re-homogenized. SK-N-MC homogenate (7 μg/well) was added in a volume of 100 μl. The assay plates were then incubated at room temperature for 2 h. Assays were stopped by addition of excess cold wash buffer (50 mM Tris-Cl pH 7.5, 0.1% BSA) immediately followed by filtration over glass fiber filters (Whatman GF/B) previously soaked in 0.5% PEI. Non-specific binding was defined with 1 μM beta-CGRP (Bachem). Protein bound radioactivity was determined using a gamma or scintillation counter. The resulting data was analyzed using a four parameter competitive binding equation (XLfit v2.0) and the IC50 was defined as the concentration of a compound of invention required to displace 50% of radioligand binding. Final assay concentration of [^125I]-CGRP was 18 pM. […] All compounds of invention were evaluated in at least two separate experiments.
On the technique in general: In a radioligand displacement assay an active substance lowers the binding of a labelled ligand.

Assay [2] has as its target T2, CGRP receptors (SK-N-MC cell membranes) (Homo sapiens, UniProt O60894+Q16602).
T2 construct: Crude membranes were prepared from SK-N-MC cells expressing CGRP receptors; endogenous in cells; host or cells: SK-N-MC cells (crude membranes)
The assay is described as follows: Saturation/Scatchard analysis of [125I]-CGRP binding to SK-N-MC cell membranes. The method, then: FIG. 1. [^125I]-CGRP Saturation/Scatchard Analysis. [^125I]-CGRP saturation using SK-N-MC membranes in the absence (filled squares) and presence (all others) of CGRP antagonist example 20. Inset depicts a Scatchard plot of same data.
Saturation/Scatchard Analysis. The nature of the interaction between the human CGRP peptide and example 20 was studied in detail using saturation binding experiments. The binding of increasing concentrations of [^125I]-CGRP to SK-N-MC cell membranes was measured in the absence (control condition) and in the presence of 300 pM and 600 pM example 20. Saturation data were analyzed using a one site binding equation to estimate apparent equilibrium dissociation constant (Kd) and the maximum number of binding sites (Bmax) (Prizm v4.0, Graphpad). The impact of the addition of example 20 to the binding parameters (Kd, Bmax) of [^125I]-CGRP binding was measured and compared. […] Example 20 was evaluated in 3 separate experiments (for representative dataset, see FIG. 1. [^125I]-CGRP Saturation/Scatchard Analysis). Functional Antagonism/Schild analysis. Agonist stimulation of CGRP receptor complex leads to cyclic AMP (adenosine 3′5′-cyclic monophosphate) production via Gs-dependent activation of an adenylate cyclase (Juaneda C et al., TiPS, 2000; 21:432-438). Consequently, CGRP receptor antagonists inhibit CGRP-induced cyclic AMP formation in SK-N-MC cells which natively express the CGRP receptor complex (Doods H et al., Br J Pharmacol, 2000; 129(3):420-423). Example 20 was evaluated for its ability to block CGRP induced cAMP formation using a commercially available cAMP HTRF kit (catalog number 62AM2PEC, CisBio International). […] The cells were lysed with lysis reagent and cAMP concentrations were determined by HTRF according to the manufacturer's instructions. A standard curve using known quantities of cAMP was evaluated in parallel to allow conversion of HTRF ratio to nM cAMP. The resulting curves were then evaluated using a Gaddum/Schild equation individually and with global fitting (Prizm v4.0, Graphpad). […]

T2 sequence (Q16602 23-461): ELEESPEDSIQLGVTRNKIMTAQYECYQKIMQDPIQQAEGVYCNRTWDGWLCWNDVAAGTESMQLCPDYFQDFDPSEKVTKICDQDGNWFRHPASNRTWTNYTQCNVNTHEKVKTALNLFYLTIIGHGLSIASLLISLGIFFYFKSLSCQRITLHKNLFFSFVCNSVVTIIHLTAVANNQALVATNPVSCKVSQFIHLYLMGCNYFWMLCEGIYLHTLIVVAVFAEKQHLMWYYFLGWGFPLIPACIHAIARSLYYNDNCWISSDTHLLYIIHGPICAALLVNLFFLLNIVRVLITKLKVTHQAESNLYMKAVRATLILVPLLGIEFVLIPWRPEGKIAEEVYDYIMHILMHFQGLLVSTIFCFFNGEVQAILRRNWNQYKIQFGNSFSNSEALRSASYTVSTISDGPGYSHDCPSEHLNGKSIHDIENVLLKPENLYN
T2 sequence (O60894 27-148): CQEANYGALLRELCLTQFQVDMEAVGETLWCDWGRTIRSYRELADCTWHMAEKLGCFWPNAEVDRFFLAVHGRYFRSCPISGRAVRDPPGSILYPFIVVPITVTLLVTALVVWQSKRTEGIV
T1 sequence (Q16602 23-461): as the sequence (Q16602 23-461) above
T1 sequence (O60894 27-148): as the sequence (O60894 27-148) above

`O=C(O[C@@H]1CC[C@@H](c2cccc(F)c2F)Cc2cccnc21)N1CCC(n2c(=O)[nH]c3ncccc32)CC1` [Example 20]: in assay [1], the IC50 (usually the point on the concentration scale where inhibition reaches its midpoint) came to 0.12 nM. For the same molecule, in assay [2] (300 pM and 600 pM example 20 vs control), the “effect on maximum binding sites of [125I]-CGRP binding (Bmax)” value is “without significantly changing the maximum binding sites”. In addition, the “effect on Kd of [125I]-CGRP binding” value in assay [2] (300 pM and 600 pM example 20 vs control, 3 experiments) is reported as “dose-dependently increased the Kd”. In addition, in assay [2] (saturation binding), the “mechanism of inhibition of [125I]-CGRP binding” value was “competitive mechanism of inhibition”.
